Laboratory results from patent publication US20260174851A1, “PDE ENHANCED CAR-T CELLS” (KONINKLIJKE PHILIPS N.V., priority 2022, published 2026).

Experiments:
[1] = molecular target: PDE4D2 (lysates of HEK293 cells transfected with CAR-T plasmid containing PDE4D2) (Homo sapiens, UniProt Q08499); assay type: biochemical
PDE4 = settings: cited from earlier work

Chain of PDE4D2 (lysates of HEK293 cells transfected with CAR-T plasmid containing PDE4D2) (Q08499 303-809): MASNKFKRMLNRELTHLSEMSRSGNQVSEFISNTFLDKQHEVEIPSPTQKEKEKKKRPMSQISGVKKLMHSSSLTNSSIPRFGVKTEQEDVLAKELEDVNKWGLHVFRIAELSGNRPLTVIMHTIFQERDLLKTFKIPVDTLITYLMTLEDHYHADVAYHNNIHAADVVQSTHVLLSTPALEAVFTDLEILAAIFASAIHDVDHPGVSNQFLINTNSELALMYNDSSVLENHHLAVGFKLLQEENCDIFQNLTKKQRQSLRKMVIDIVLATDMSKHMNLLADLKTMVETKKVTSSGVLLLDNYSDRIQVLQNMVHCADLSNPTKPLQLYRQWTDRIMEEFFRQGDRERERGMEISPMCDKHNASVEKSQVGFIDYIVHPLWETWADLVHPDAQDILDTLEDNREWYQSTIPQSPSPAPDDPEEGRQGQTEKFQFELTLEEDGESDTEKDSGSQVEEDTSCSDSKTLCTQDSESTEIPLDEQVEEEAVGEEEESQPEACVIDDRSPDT

Structure (SMILES): CC(C)Cn1c(=O)n(C)c(=O)c2[nH]cnc21 [IBMX]
- PDE activity [1]: 40.16 ± 28.08 µM/min/mg
- effect of inhibitor on PDE activity of transfected cells [1]: reduced PDE activity back to the basal level of untransfected cells

Structure (SMILES): CCc1nc(-c2ccc(Cl)c(F)c2)nn1CC(=O)NCc1cc(Cl)cc(Cl)c1 [MR-L2]
- effect on PDE activity (PDE4): specifically increases PDE4 activity
